{
  "source": "patent US12655126B2",
  "about": "“Imidazole-pyrazole derivatives as antibacterials” (Hoffmann-La Roche Inc., priority 2020, dated 2026)",
  "note": "Where a name gives a salt, the structure may show the parent alone.",
  "data": [
    {"tested_on": "Acinetobacter baumannii ATCC17961", "assay": "Antimicrobial susceptibility testing: 90% growth inhibitory concentration (IC90) determination", "format": "cell-based", "details": "Acinetobacter baumannii ATCC17961; Iso-Sensitest broth; growth by OD 600 nm over 16 h; 90% growth inhibitory concentration; read-out: ATCC 17961 IC90", "protocol": "(§1) Antimicrobial Susceptibility Testing:\n(§2) 90% Growth Inhibitory Concentration (IC90) Determination\n(§3) The in vitro antimicrobial activity of the compounds was determined according to the following procedure:\n(§4) The assay used a 10-points Iso-Sensitest broth medium to measure quantitatively the in vitro activity of the compounds against Acinetobacter baumannii ATCC17961.\n(§5) Stock compounds in DMSO were serially twofold diluted (e.g. range from 50 to 0.097 μM final concentration) in 384 wells microtiter plates and inoculated with 49 μl the bacterial suspension in Iso-Sensitest medium to have a final cell concentration of ˜5×10^(5) CFU/ml in a final volume/well of 50 ul/well. Microtiter plates were incubated at 35±2° C.\n(§6) Bacterial cell growth was determined with the measurement of optical density at λ=600 nm each minutes over a time course of 16 h. Growth inhibition was calculated during the logarithmic growth of the bacterial cells with determination of the concentration inhibiting 50% (IC50) and 90% (IC90) of the growth.\n(§7) Table 1 provides the 90% growth inhibitory concentrations (IC90) in micromoles per liter of the compounds of present invention obtained against the strain Acinetobacter baumannii ATCC17961.", "units": {"IC90": "nM"}, "values": [
      {"smiles": "Cn1c(-c2cn(-c3ccc(N)cn3)nc2C#N)cnc1C(=O)Nc1ccc(C(=O)N2CCN(C(=O)C3CC[N+](C)(C)CC3)CC2)c(Cl)c1", "note": "[Example J2, 5-[1-(5-amino-2-pyridyl)-3-cyano-pyrazol-4-yl]-N-[3-chloro-4-[4-(1,1-dimethylpiperidin-1-ium-4-carbonyl)piperazine-1-carbonyl]phenyl]-1-methyl-imidazole-2-carboxamide; 2,2,2-trifluoroacetate]", "IC90": 9830},
      {"smiles": "Cn1c(-c2cn(-c3ccc(N)cn3)nc2C(F)(F)F)cnc1C(=O)Nc1ccc(C(=O)N2CCN(C(=O)[C@@H]3CC[N+](C)(C)C[C@@H]3O)CC2)c(Cl)c1", "note": "(stereo in doubt) [Example D5, 5-[1-(5-amino-2-pyridyl)-3-(trifluoromethyl)pyrazol-4-yl]-N-[3-chloro-4-[4-[(3R,4R)-3-hydroxy-1,1-dimethyl-piperidin-1-ium-4-carbonyl]piperazine-1-carbonyl]phenyl]-1-methyl-imidazole-2-carboxamide; formate]", "IC90": 240},
      {"smiles": "Cn1c(-c2cn(-c3ccc(N)cn3)nc2C(F)(F)F)cnc1C(=O)Nc1ccc(C(=O)N2CCN(C(=O)C3CC[N+](C)(C)CC3)CC2)c(Cl)c1", "note": "[Example D3, 5-[1-(5-amino-2-pyridyl)-3-(trifluoromethyl)pyrazol-4-yl]-N-[3-chloro-4-[4-(1,1-dimethylpiperidin-1-ium-4-carbonyl)piperazine-1-carbonyl]phenyl]-1-methyl-imidazole-2-carboxamide; formate]", "IC90": 150},
      {"smiles": "CNC(=O)c1ccc(-n2cc(-c3cnc(C(=O)Nc4ccc(C(=O)N5CCN(C(=O)C6CC[N+](C)(C)CC6)CC5)c(Cl)c4)n3C)c(C(F)(F)F)n2)nc1", "note": "[Example A3, 6-[4-[2-[[3-chloro-4-[4-(1,1-dimethylpiperidin-1-ium-4-carbonyl)piperazine-1-carbonyl]phenyl]carbamoyl]-3-methyl-imidazol-4-yl]-3-(trifluoromethyl)pyrazol-1-yl]-N-methyl-pyridine-3-carboxamide; formate]", "IC90": 820},
      {"smiles": "Cn1c(-c2cn(-c3ccc(N)c(F)n3)nc2C(F)(F)F)cnc1C(=O)Nc1ccc(C(=O)N2CCN(C(=O)C3CC[N+](C)(C)CC3)CC2)c(Cl)c1", "note": "[Example A10, 5-[1-(5-amino-6-fluoro-2-pyridyl)-3-(trifluoromethyl)pyrazol-4-yl]-N-[3-chloro-4-[4-(1,1-dimethylpiperidin-1-ium-4-carbonyl)piperazine-1-carbonyl]phenyl]-1-methyl-imidazole-2-carboxamide]", "IC90": 510},
      {"smiles": "CNc1ccc(-n2cc(-c3cnc(C(=O)Nc4ccc(C(=O)N5CCN(C(=O)[C@@H]6CC[N+](C)(C)C[C@H]6O)CC5)c(Cl)c4)n3C)c(C(F)(F)F)n2)nc1", "note": "[Example E8, N-[3-chloro-4-[4-[(3S,4R)-3-hydroxy-1,1-dimethyl-piperidin-1-ium-4-carbonyl]piperazine-1-carbonyl]phenyl]-1-methyl-5-[1-[5-(methylamino)-2-pyridyl]-3-(trifluoromethyl)pyrazol-4-yl]imidazole-2-carboxamide; formate]", "IC90": 220},
      {"smiles": "Cc1nc(-n2cc(-c3cnc(C(=O)Nc4ccc(C(=O)N5CCN(C(=O)C6CC[N+](C)(C)CC6)CC5)c(Cl)c4)n3C)c(C(F)(F)F)n2)ccc1N", "note": "[Example A11, 5-[1-(5-amino-6-methyl-2-pyridyl)-3-(trifluoromethyl)pyrazol-4-yl]-N-[3-chloro-4-[4-(1,1-dimethylpiperidin-1-ium-4-carbonyl)piperazine-1-carbonyl]phenyl]-1-methyl-imidazole-2-carboxamide]", "IC90": 230},
      {"smiles": "Cn1c(-c2cn(-c3ncc(N)cc3F)nc2C(F)(F)F)cnc1C(=O)Nc1ccc(C(=O)N2CCN(C(=O)C3CC[N+](C)(C)CC3)CC2)c(Cl)c1", "note": "[Example A8, 5-[1-(5-amino-3-fluoro-2-pyridyl)-3-(trifluoromethyl)pyrazol-4-yl]-N-[3-chloro-4-[4-(1,1-dimethylpiperidin-1-ium-4-carbonyl)piperazine-1-carbonyl]phenyl]-1-methyl-imidazole-2-carboxamide]", "IC90": 330},
      {"smiles": "Cc1c[nH]nc1-n1cc(-c2cnc(C(=O)Nc3ccc(C(=O)N4CCN(C(=O)C5CC[N+](C)(C)CC5)CC4)c(Cl)c3)n2C)c(C(F)(F)F)n1", "note": "[Example K2, N-[3-chloro-4-[4-(1,1-dimethylpiperidin-1-ium-4-carbonyl)piperazine-1-carbonyl]phenyl]-1-methyl-5-[1-(4-methyl-1H-pyrazol-3-yl)-3-(trifluoromethyl)pyrazol-4-yl]imidazole-2-carboxamide; 2,2,2-trifluoroacetate]", "IC90": 4360},
      {"smiles": "Cn1c(-c2cn(-c3ccc(N)cn3)nc2C(F)(F)F)cnc1C(=O)Nc1ccc(C(=O)N2CCN(C(=O)C3(O)CC[N+](C)(C)CC3)CC2)c(Cl)c1", "note": "[Example D10, 5-[1-(5-amino-2-pyridyl)-3-(trifluoromethyl)pyrazol-4-yl]-N-[3-chloro-4-[4-(4-hydroxy-1,1-dimethyl-piperidin-1-ium-4-carbonyl)piperazine-1-carbonyl]phenyl]-1-methyl-imidazole-2-carboxamide; formate]", "IC90": 330},
      {"smiles": "COc1ccc(-n2cc(-c3cnc(C(=O)Nc4ccc(C(=O)N5CCN(C(=O)[C@@H]6C[C@@H](O)C[N+]6(C)C)CC5)c(Cl)c4)n3C)c(C(F)(F)F)n2)nc1", "note": "[Example B6, N-[3-chloro-4-[4-[(2S,4R)-4-hydroxy-1,1-dimethyl-pyrrolidin-1-ium-2-carbonyl]piperazine-1-carbonyl]phenyl]-5-[1-(5-methoxy-2-pyridyl)-3-(trifluoromethyl)pyrazol-4-yl]-1-methyl-imidazole-2-carboxamide; formate]", "IC90": 360},
      {"smiles": "Cn1c(-c2cn(-c3ccc(N)cn3)nc2C(F)(F)F)cnc1C(=O)Nc1ccc(C(=O)N2CCN(C(=O)[C@H]3CC[N+](C)(C)C[C@@H]3O)CC2)c(Cl)c1", "note": "(stereo in doubt) [Example D8, 5-[1-(5-amino-2-pyridyl)-3-(trifluoromethyl)pyrazol-4-yl]-N-[3-chloro-4-[4-[(3R,4S)-3-hydroxy-1,1-dimethyl-piperidin-1-ium-4-carbonyl]piperazine-1-carbonyl]phenyl]-1-methyl-imidazole-2-carboxamide; formate]", "IC90": 230},
      {"smiles": "Cn1c(-c2cn(-c3ccc(N)cn3)nc2C(F)(F)F)cnc1C(=O)Nc1ccc(C(=O)N2CCN(C(=O)[C@@H]3[C@@H](Oc4ccc(N)cn4)CC[N+]3(C)C)CC2)c(Cl)c1", "note": "[Example D14, N-[4-[4-[(2S,3S)-3-[(5-amino-2-pyridyl)oxy]-1,1-dimethyl-pyrrolidin-1-ium-2-carbonyl]piperazine-1-carbonyl]-3-chloro-phenyl]-5-[1-(5-amino-2-pyridyl)-3-(trifluoromethyl)pyrazol-4-yl]-1-methyl-imidazole-2-carboxamide; formate]", "IC90": 550},
      {"smiles": "COCCOc1ccc(-n2cc(-c3cnc(C(=O)Nc4ccc(C(=O)N5CCN(C(=O)C6CC[N+](C)(C)CC6)CC5)c(Cl)c4)n3C)c(C(F)(F)F)n2)nc1", "note": "[Example G1, N-[3-Chloro-4-[4-(1,1-dimethylpiperidin-1-ium-4-carbonyl)piperazine-1-carbonyl]phenyl]-5-[1-[5-(2-methoxyethoxy)-2-pyridyl]-3-(trifluoromethyl)pyrazol-4-yl]-1-methyl-imidazole-2-carboxamide; formate]", "IC90": 350},
      {"smiles": "Cn1c(-c2cn(-c3ccc(N)cn3)nc2C(F)(F)F)cnc1C(=O)Nc1ccc(C(=O)N2CCN(C(=O)[C@@H]3CC[N+](C)(C)C[C@H]3O)CC2)c(Cl)c1", "note": "(stereo in doubt) [Example D6, 5-[1-(5-amino-2-pyridyl)-3-(trifluoromethyl)pyrazol-4-yl]-N-[3-chloro-4-[4-[(3S,4R)-3-hydroxy-1,1-dimethyl-piperidin-1-ium-4-carbonyl]piperazine-1-carbonyl]phenyl]-1-methyl-imidazole-2-carboxamide; formate]", "IC90": 370}
    ]},
    {"tested_on": "Acinetobacter baumannii ATCC17961", "assay": "Antimicrobial susceptibility testing: 90% growth inhibitory concentration (IC90) determination", "format": "cell-based", "details": "Acinetobacter baumannii, ATCC17961, 16 h, read-out: ATCC 17961 IC90", "protocol": "as §1, §2, §3, §4, §5, §6, §7", "units": {"IC90": "nM"}, "values": [
      {"smiles": "COc1ccc(-n2cc(-c3cnc(C(=O)Nc4ccc(C(=O)N5CCN(C(=O)C6CC[N+](C)(C)CC6)CC5)c(Cl)c4)n3C)c(C(F)(F)F)n2)nc1", "note": "[Example A1, N-[3-Chloro-4-[4-(1,1-dimethylpiperidin-1-ium-4-carbonyl)piperazine-1-carbonyl]phenyl]-5-[1-(5-methoxy-2-pyridyl)-3-(trifluoromethyl)pyrazol-4-yl]-1-methyl-imidazole-2-carboxamide; formate]", "IC90": 95},
      {"smiles": "Cn1c(-c2cn(-c3ccc(N)cn3)nc2C(F)(F)F)cnc1C(=O)Nc1ccc(C(=O)N2CCN(C(=O)[C@@H]3C[C@@H](O)C[N+]3(C)C)CC2)c(Cl)c1", "note": "[Example D1, 5-[1-(5-Amino-2-pyridyl)-3-(trifluoromethyl)pyrazol-4-yl]-N-[3-chloro-4-[4-[(2S,4R)-4-hydroxy-1,1-dimethyl-pyrrolidin-1-ium-2-carbonyl]piperazine-1-carbonyl]phenyl]-1-methyl-imidazole-2-carboxamide; formate]", "IC90": 310},
      {"smiles": "Cn1c(-c2cn(-c3ccc(N)cn3)nc2C(F)(F)F)cnc1C(=O)Nc1ccc(C(=O)N[C@H]2[C@@H]3CN(C(=O)N[C@@H]4C[N+](C)(C)C[C@H]4O)C[C@@H]32)c(Cl)c1", "note": "(racemic) [Example D18, (exo)-6-[[4-[[5-[1-(5-Aminopyridin-2-yl)-3-(trifluoromethyl)pyrazol-4-yl]-1-methylimidazole-2-carbonyl]amino]-2-chlorobenzoyl]amino]-N-[rac-(trans)-4-hydroxy-1,1-dimethylpyrrolidin-1-ium-3-yl]-3-azabicyclo[3.1.0]hexane-3-carboxamide; formate]", "IC90": 290}
    ]}
  ]
}
